Assay [1] concerns the target T1, BRD9 (Homo sapiens, UniProt Q9H8M2).
T1 sequence (Q9H8M2 1-597): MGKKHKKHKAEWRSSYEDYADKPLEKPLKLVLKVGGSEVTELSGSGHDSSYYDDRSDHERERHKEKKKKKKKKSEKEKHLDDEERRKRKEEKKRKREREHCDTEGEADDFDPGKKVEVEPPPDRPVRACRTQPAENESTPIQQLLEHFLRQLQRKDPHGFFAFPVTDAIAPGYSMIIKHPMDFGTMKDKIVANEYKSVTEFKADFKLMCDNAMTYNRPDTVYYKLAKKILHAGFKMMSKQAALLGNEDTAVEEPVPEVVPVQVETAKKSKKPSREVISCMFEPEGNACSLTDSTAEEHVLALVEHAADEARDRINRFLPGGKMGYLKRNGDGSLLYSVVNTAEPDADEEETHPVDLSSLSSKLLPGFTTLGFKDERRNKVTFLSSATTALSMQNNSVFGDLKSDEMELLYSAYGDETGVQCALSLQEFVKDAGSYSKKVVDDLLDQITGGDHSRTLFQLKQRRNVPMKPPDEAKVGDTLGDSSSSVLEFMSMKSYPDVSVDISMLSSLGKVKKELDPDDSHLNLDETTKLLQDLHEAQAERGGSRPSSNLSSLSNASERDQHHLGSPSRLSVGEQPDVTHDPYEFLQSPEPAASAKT
Description: Degradation of BRD9 (IF), immunofluorescence in MV4-11 cells, 24 hours (Assay Protocol 2). The class given is cell-based. Further details: A suspension of MV4-11 cells (ATCC CRL-9591) was prepared; host or cells: MV4-11. The essentials:
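MV4-11 cells treated with compound 24 h at 37° C., then fixed, permeabilised and immunostained for BRD9 (anti-BRD9 E4Q3F, Alexa 647 secondary, Hoechst counterstain). High-content imaging quantified nuclear BRD9 signal; % BRD9 remaining normalised to DMSO and 100 nM CFT-8634 controls.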

In assay [2] the target is T1, BRD9. Description: BRD9 degradation, HiBiT-BRD9 KI HEK293 (LgBiT) cells, NanoGlo Lytic Endpoint assay (Assay Protocol 1). Type of assay: cell-based. The note with it: BRD9 degradation; for Dmax / Dmax at 1 µM: HEK293; for Dmax at 1 µM: 1 μM compound at 6 h of treatment, read-out: Assay 1 Dmax. The essentials:
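HiBiT-tagged BRD9 knock-in HEK293 (LgBiT) cells exposed to compounds for 6 h at 37 °C, 5% CO2. Residual BRD9 measured by HiBiT lytic luminescence. % BRD9 remaining normalised to DMSO-treated cells (high) and no-cell wells (low).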
(HiBiT is a short tag that completes a luciferase, so light tracks the accessible tagged protein.)

Where [3] appears, read: Assay protocol 2, BRD9 degradation, read-out: DC50.
Setting [4] is: MV4-11, Assay protocol 2, BRD9 degradation, read-out: Dmax.
Setting [5] is: Assay protocol 1, read-out: DC50.
The mark [6] stands for this setting: Assay protocol 1, read-out: Dmax.
Where [7] appears, read: MV4-11, Table 4, BRD9 degradation, determined according to Assay Protocol 2, read-out: Dmax^2.
Where [8] appears, read: Table 4, determined according to Assay Protocol 1, read-out: Dmax^1.
The mark [9] stands for this setting: MV4-11, 24 h, Table 2, BRD9 degradation (IF), Assay Protocol 2, MV4-11 cells, read-out: Assay 2 DCmax.
Where [10] appears, read: Table 2, BRD9 degradation (IF), Assay Protocol 2, MV4-11 cells, read-out: Assay 2 DC50.
The mark [11] stands for this setting: Table 2, Assay Protocol 1, 6 h of treatment, read-out: Assay 1 DC50.
[12] abbreviates: Table 4, BRD9 degradation, determined according to Assay Protocol 2, read-out: DC50^2.
The mark [13] stands for this setting: Table 4, determined according to Assay Protocol 1, read-out: DC50^1.

Each structure is given as a SMILES string. Some results are limits rather than exact numbers.

For orientation: DC50 means the concentration giving 50% degradation.

On to `COc1cc(-c2cn(C)c(=O)c(C)c2C)cc(OC)c1CN1CCC2(CC1)CN(c1cccc(C3CCCN3C(=O)C(C#N)=CC(C)(C)C)c1)C2` (single isomer, unassigned) [Compound B43, 2-(2-(3-(7-(2,6-dimethoxy-4-(1,4,5-trimethyl-6-oxo-1,6-dihydropyridin-3-yl)benzyl)-2,7-diazaspiro[3.5]nonan-2-yl)phenyl)pyrrolidine-1-carbonyl)-4,4-dimethylpent-2-enenitrile], for which the DC50 in assay [1] (setting [3]) is 1.25 to 10 nM; in assay [2] (setting [5]), below 1.25 nM. Also, the Dmax in assay [1] (setting [4]) and in assay [2] (setting [6]) was 40 to 70% in each case.
Regarding `COc1cccnc1/C=C(\C#N)C(=O)N1CCc2c(CN3CCN(Cc4c(OC)cc(-c5cn(C)c(=O)c(C)c5C)cc4OC)CC3)cccc2C1C` (mixture of isomers) [Compound B51, (E/Z)-2-(5-((4-(2,6-dimethoxy-4-(1,4,5-trimethyl-6-oxo-1,6-dihydropyridin-3-yl)benzyl)piperazin-1-yl)methyl)-1-methyl-1,2,3,4-tetrahydroisoquinoline-2-carbonyl)-3-(3-methoxypyridin-2-yl)acrylonitrile], the Dmax was in the range of 25 to 40% in assay [1] (setting [4]) and 40 to 70% in assay [2] (setting [6]). Further, the half-maximal degradation concentration (DC50) in assay [2] (setting [5]) fell in the range of 1.25 to 10 nM.
`COc1cc(-c2cn(C)c(=O)c(C)c2C)cc(OC)c1CN1C2CC1CN(C(=O)/C(C#N)=C/C1(C(F)(F)F)CCC1)C2` (mixture of isomers) [BRD9p, (E/Z)-2-(6-(2,6-dimethoxy-4-(1,4,5-trimethyl-6-oxo-1,6-dihydropyridin-3-yl)benzyl)-3,6-diazabicyclo[3.1.1]heptane-3-carbonyl)-3-(1-(trifluoromethyl)cyclobutyl)acrylonitrile]: the Dmax in assay [1] (setting [7]) and in assay [2] (setting [8]) was above 70% throughout.
As for `COc1cc(-c2cn(C)c(=O)c3cc(C(=O)NCCCCCOc4ccc5c(c4)CCN(C(=O)/C(C#N)=C/c4nccs4)C5C)sc23)cc(OC)c1CN(C)C` (mixture of isomers) [Compound A75, (E/Z)—N-(5-((2-(2-cyano-3-(thiazol-2-yl)acryloyl)-1-methyl-1,2,3,4-tetrahydroisoquinolin-6-yl)oxy)pentyl)-7-(4-((dimethylamino)methyl)-3,5-dimethoxyphenyl)-5-methyl-4-oxo-4,5-dihydrothieno[3,2-c]pyridine-2-carboxamide], the Dmax in assay [1] (setting [9]) was above 75%. Besides, the 50% degradation concentration (DC50) in assay [1] (setting [10]) was in the range of 1.25 to 10 nM; in assay [2] (setting [11]), 25 to 300 nM. In addition, the Dmax at 1 µM in assay [2] (Table 2, Assay Protocol 1) is 40 to 70%.
In the case of `COc1cc(-c2cn(C)c(=O)c(C)c2C)cc(OC)c1CN(C)Cc1cccc(C2CCCN2C(=O)/C(C#N)=C/C(C)(C)C)c1` (mixture of isomers) [Compound B78, (E/Z)-2-(2-(3-(((2,6-dimethoxy-4-(1,4,5-trimethyl-6-oxo-1,6-dihydropyridin-3-ylbenzyl)methyl)amino)methyl)phenyl)pyrrolidine-1-carbonyl)-4,4-dimethylpent-2-enenitrile], the DC50 was in the range of 10 to 25 nM in assay [1] (setting [3]) and 1.25 to 10 nM in assay [2] (setting [5]). Also, the Dmax in assay [1] (setting [4]) and in assay [2] (setting [6]) was above 75% in each case.
Regarding `COc1cc(-c2cn(C)c(=O)c3ccsc23)cc(OC)c1CN1CCN(C(=O)/C(C#N)=C/C(C)(C)C)CC1` [BRD9w, (E/Z)-2-(4-(2,6-dimethoxy-4-(5-methyl-4-oxo-4,5-dihydrothieno[3,2-c]pyridin-7-yl)benzyl)piperazine-1-carbonyl)-4,4-dimethylpent-2-enenitrile], the Dmax in assay [1] (setting [7]) and in assay [2] (setting [8]) was above 70% throughout. Also, the DC50 in assay [1] (setting [12]) and in assay [2] (setting [13]) was below 25 nM in each case.
As to `COc1cc(-c2cn(C)c(=O)c(C)c2C)cc(OC)c1CN1CC2CC1CN2C(=O)/C(C#N)=C/c1cccc(C(F)(F)F)n1` (mixture of isomers) [BRD9x, (E/Z)-2-(5-(2,6-dimethoxy-4-(1,4,5-trimethyl-6-oxo-1,6-dihydropyridin-3-yl)benzyl)-2,5-diazabicyclo[2.2.1]heptane-2-carbonyl)-3-(6-(trifluoromethyl)pyridin-2-yl)acrylonitrile], the Dmax in assay [1] (setting [7]) was above 70%. Further, the 50% degradation concentration (DC50) in assay [1] (setting [12]) and in assay [2] (setting [13]) was below 25 nM in each case.
Consider `COc1ccc(C2CC(C(=O)N3CCN(Cc4c(OC)cc(-c5cn(C)c(=O)c(C)c5C)cc4OC)CC3)CN(C(=O)/C(C#N)=C/C(C)(C)C)C2)cc1` (stereo not shown) [Compound B208], for which the Dmax in assay [1] (setting [7]) and in assay [2] (setting [8]) was above 70% in each case. Besides, the DC50 in assay [1] (setting [12]) and in assay [2] (setting [13]) was below 25 nM each time.
`COc1cc(-c2cn(C)c(=O)c(C)c2C)cc(OC)c1CN1CCC(Oc2cccc3c2CCN(C(=O)/C(C#N)=C/c2cccc(C(F)(F)F)n2)C3C)CC1` (stereo not shown) [B22]: the Dmax in assay [1] (setting [4]) is 40 to 70%; in assay [2] (setting [6]) it was above 75%.
As to `COc1cc(-c2cn(C)c(=O)c3cnccc23)cc(OC)c1CN1CCN(Cc2cccc3c2CCN(C(=O)/C(C#N)=C/C2(C)COC2)C3C)CC1` (mixture of isomers) [Compound A27, (E/Z)-2-(5-((4-(2,6-dimethoxy-4-(2-methyl-1-oxo-1,2-dihydro-2,7-naphthyridin-4-yl)benzyl)piperazin-1-yl)methyl)-1-methyl-1,2,3,4-tetrahydroisoquinoline-2-carbonyl)-3-(3-methyloxetan-3-yl)acrylonitrile], the Dmax in assay [1] (setting [9]) lay within 40 to 70%. Moreover, the DC50 in assay [1] (setting [10]) and in assay [2] (setting [11]) was 1.25 to 10 nM each time. Further, the Dmax at 1 µM in assay [2] (Table 2, Assay Protocol 1) was 40 to 70%.
Take `COc1cc(-c2cn(C)c(=O)c3cnccc23)cc(OC)c1CN1CCCN(Cc2cccc3c2CCN(C(=O)/C(C#N)=C/C(C)(C)C)C3C)CC1` (mixture of isomers) [Compound A31, (E/Z)-2-(5-((4-(2,6-dimethoxy-4-(2-methyl-1-oxo-1,2-dihydro-2,7-naphthyridin-4-yl)benzyl)-1,4-diazepan-1-yl)methyl)-1-methyl-1,2,3,4-tetrahydroisoquinoline-2-carbonyl)-4,4-dimethylpent-2-enenitrile]: in assay [1] (setting [9]), the Dmax was in the range of 40 to 70%. Besides, the DC50 in assay [1] (setting [10]) and in assay [2] (setting [11]) was 1.25 to 10 nM throughout. The Dmax at 1 µM in assay [2] (Table 2, Assay Protocol 1) is 70 to 75%.
Regarding `COc1cc(-c2cn(C)c(=O)c(C)c2C)cc(OC)c1CN1CCC(Oc2cccc(C3CCCN3C(=O)/C(C#N)=C/C(C)(C)C)c2)C1` (mixture of isomers) [Compound B54, (E/Z)-2-(2-(3-(((S)-1-(2,6-dimethoxy-4-(1,4,5-trimethyl-6-oxo-1,6-dihydropyridin-3-yl)benzyl)pyrrolidin-3-yl)oxy)phenyl)pyrrolidine-1-carbonyl)-4,4-dimethylpent-2-enenitrile], the DC50 in assay [1] (setting [3]) and in assay [2] (setting [5]) was below 1.25 nM each time. Further, the figures for the Dmax in assay [1] (setting [4]) and in assay [2] (setting [6]) were 70 to 75% and above 75%, respectively.
Consider `COc1cc(-c2cn(C)c(=O)c(C)c2C)cc(OC)c1C(=O)N(C)C1CCN(C(=O)/C(C#N)=C/C(C)(C)C)CC1` [BRD9u], for which the Dmax in assay [1] (setting [7]) and in assay [2] (setting [8]) was 30 to 50% throughout. Moreover, the DC50 in assay [1] (setting [12]) is below 25 nM.
For the compound `COc1cc(-c2cn(C)c(=O)c(C)c2C)cc(OC)c1CN1CCN(Cc2cccc3c2CCN(C(=O)/C(C#N)=C/C2(C)CCOCC2)C3C)C2(CC2)C1` (mixture of isomers) [Compound B123, (E/Z)-2-(5-((7-(2,6-dimethoxy-4-(1,4,5-trimethyl-6-oxo-1,6-dihydropyridin-3-yl)benzyl)-4,7-diazaspiro[2.5]octan-4-yl)methyl)-1-methyl-1,2,3,4-tetrahydroisoquinoline-2-carbonyl)-3-(4-methyltetrahydro-2H-pyran-4-yl)acrylonitrile], the values for the DC50 in assay [1] (setting [3]) and in assay [2] (setting [5]) were below 1.25 nM and 1.25 to 10 nM, respectively. For the same compound, the Dmax in assay [1] (setting [4]) and in assay [2] (setting [6]) was above 75% in each case.
